Values quoted from earlier work, collected in the PKSmart pharmacokinetics tables (Seal et al. 2025).

Assay: Lombardo, Berellini, Obach 2018, Drug Metab Dispos 46:1466, doi 10.1124/dmd.118.082966
Conditions: human; for clearance / half-life / MRT / Vd: in vivo, iv; for fraction unbound: plasma

| SMILES | clearance [mL/min/kg] | half-life [h] | fraction unbound | MRT [h] | Vd [L/kg] |
| --- | --- | --- | --- | --- | --- |
| Oc1cccc(-c2c3nc(c(-c4cccc(O)c4)c4ccc([nH]4)c(-c4cccc(O)c4)c4ccc([nH]4)c(-c4cccc(O)c4)c4nc2CC4)C=C3)c1 | 0.06 | 91.5 | 0.14 | – | – |
| NCCNc1ccc(NCCN)c2c1C(=O)c1ccncc1C2=O | 17.7 | 13.4 | – | 8.9 | 10.1 |
| CCC[S@+](O)CCCN(CC)C[C@@H](O)COc1ccc(C#N)cc1 | 11.3 | 2.4 | – | 2.65 | 1.8 |
| C[C@@H](O)C1C(=O)N2C(C(=O)O)=C(S[C@H]3CC(C(=O)N4CC[C@H](NC(=O)CNC(=N)N)C4)N(C)C3)[C@H](C)[C@H]12 (stereo not given in full) | 1.9 | 1.7 | 0.91 | 2 | 0.23 |
| NCC(=O)CCC(=O)O | 1.88 | 0.83 | 0.88 | 1.06 | 0.12 |
| COP(=O)(c1cc(C)cc(/C=C/C#N)c1)c1c(C(N)=O)[nH]c2ccc(Cl)c(F)c12 (stereo not given) | 1.83 | 7.4 | – | 8.9 | 0.97 |
| CCc1c2c(nc3ccc(OC(=O)CCC(=O)Oc4c(C)c(C)c5c(c4C)CC[C@@](C)(CCC[C@H](C)CCC[C@H](C)CCCC(C)C)O5)cc13)-c1cc3c(c(=O)n1C2)COC(=O)[C@]3(O)CC | 0.81 | 3.77 | – | 3.34 | 0.15 |
| COCOCC(CCC1(C(=O)NC2CCC(C(=O)O)CC2)CCCC1)C(=O)O (stereo not given) | 2.3 | 16 | 0.872 | 1.81 | 0.25 |
| C[C@@H]1CCN(C(=O)CC#N)C[C@@H]1N(C)c1ncnc2[nH]ccc12 | 5.88 | – | 0.6 | 3.5 | 1.24 |
| C[C@H]1O[C@@H](n2cc(F)c(=O)[nH]c2=O)[C@H](O)[C@@H]1O | 11 | 0.35 | – | 0.46 | 0.28 |
| CNCCCC12CCC(c3ccccc31)c1ccccc12 | 14 | 51 | 0.11 | 54 | 45 |
| Cn1c(NCCN(CCO)CCCc2ccc([N+](=O)[O-])cc2)cc(=O)n(C)c1=O | 20.9 | 1.52 | 0.09 | 1.56 | 1.96 |
| O=C(NCCN1CCOCC1)Nc1nc2ccc(Sc3nnc4ccc(-c5ccc(F)cc5)nn34)cc2s1 | 8.34 | 19.4 | – | 8.19 | 4.1 |
| CCOc1ccc2c(c1)[C@]1(CC[C@H](OCCN3CCOCC3)CC1)C(=O)N2S(=O)(=O)c1ccc(C(=O)NC(C)(C)C)cc1OC | 12.3 | 10.4 | 0.1 | 9.4 | 7 |
| CC(C)=CCC[C@]1(C)C=Cc2c(O)c3c(c(CC=C(C)C)c2O1)O[C@]12C(=CC4C[C@@H]1C(C)(C)O[C@@]2(C/C=C(/C)C(=O)O)C4=O)C3=O | 1.24 | 14.6 | – | 13.3 | 0.99 |
| Cn1c(=N)c(NC(=O)NCCN)cn1CC1=C(C(=O)O)N2C(=O)C(=NC(=O)C(NOC(C)(C)C(=O)O)c3nsc(N)n3)[C@H]2SC1 (stereo not given in full) | 1.16 | 2.58 | 0.81 | 2.39 | 0.17 |
| COC(=O)C[C@@](O)(CCCC(C)(C)O)C(=O)O[C@@H]1C(OC)=C[C@]23CCCN2CCc2cc4c(cc2[C@H]13)OCO4 | 2.96 | 9.8 | – | 10.2 | 1.8 |
| C[C@H]1COc2c(N3CCN(C)CC3)c(F)c(N)c3c(=O)c(C(=O)O)cn1c23 | 2.2 | 20.1 | 0.82 | 18.3 | 2.42 |
| CNCCC=C1c2ccccc2CCc2ccccc21 | 10 | 30 | – | 37 | 22 |
| CCOC(=O)C1(c2ccccc2)CCN(CCC(O)c2ccccc2)CC1 (stereo not given) | 22 | 3.22 | – | 4.32 | 5.7 |
| C[C@@H](Oc1cc(-n2cnc3ccc(CN4CCN(C)CC4)cc32)sc1C(N)=O)c1ccccc1C(F)(F)F | 20 | 10.3 | – | 10 | 12 |
| CCC1C(=O)N(C)c2cnc(Nc3ccc(C(=O)NC4CCN(C)CC4)cc3OC)nc2N1C1CCCC1 (stereo not given) | 17.1 | 40.1 | – | 31.3 | 31.2 |
| CCc1[nH]c(=O)[nH]c1C(=O)c1ccncc1 | 9.03 | 1.32 | – | 1.2 | 0.65 |

| SMILES | clearance [mL/min/kg] | half-life [h] | fraction unbound | MRT [h] | Vd [L/kg] |
| --- | --- | --- | --- | --- | --- |
| C[C@H](O)C1C(=O)N2C(C(=O)O)=C(S[C@H]3CN[C@H](CNS(N)(=O)=O)C3)[C@@H](C)C12 (stereo not given in full) | – | 1.2 | 0.92 | – | – |
| COc1cccc2c1C(=N)c1c(O)c3c(c(O)c1C2=O)C[C@@](O)(C(=O)CO)C[C@@H]3O[C@H]1C[C@H](N)[C@H](O)[C@H](C)O1 | 15 | 13.8 | – | 17.2 | 15.4 |
| CC(CCc1ccccc1)NCC(O)c1ccc(O)c(C(N)=O)c1 (stereo not given) | 23 | 4.4 | – | – | – |
| NCCCCC(NC(=O)C(Cc1cc(Br)c(O)c(Br)c1)NC(=O)N1CCC(N2Cc3ccccc3NC2=O)CC1)C(=O)N1CCN(c2ccncc2)CC1 (stereo not given) | 2.6 | 2.5 | – | 1.9 | 0.31 |
| CCCn1c(=O)c2[nH]c(C34CCC(CCC(=O)O)(CC3)CC4)nc2n(CCC)c1=O | 1.08 | 16 | 0.1 | 11.7 | 0.76 |
| CCCc1cc(=O)[nH]c(=S)[nH]1 | 3.1 | 1.3 | 0.18 | 1.8 | 0.34 |
| C[C@H](/C=C/[C@H](C)C(C)(C)O)[C@H]1CC[C@H]2/C(=C/C=C3C[C@@H](O)C[C@H](O)C3)CCC[C@]12C | 0.89 | 5.3 | – | 7.7 | 0.41 |
| CC(CN(C)C)CN1c2ccccc2CCc2ccccc21 (stereo not given) | 16 | 23 | 0.051 | 17 | 16 |
| CCOCCO[C@@H]1CC[C@@H](C[C@@H](C)[C@@H]2CC(=O)C(C)=CC(C)[C@@H](O)C(OC)C(=O)C(C)C[C@H](C)/C=C/C=C/C=C(\C)[C@@H](OC)C[C@@H]3CC[C@@H](C)[C@@](O)(O3)C(=O)C(=O)N3CCCCC3C(=O)O2)C[C@H]1OC (stereo not given in full) | 12.2 | 93.9 | – | 60.9 | 44.5 |
| CNC(=O)Nc1c(OCCN2CCCC2)c(OC)c2occc2c1OC | 3.2 | 5 | – | 4.2 | 0.8 |
| N#Cc1ccccc1-c1cc(-c2ccccn2)cn(-c2ccccc2)c1=O | 0.1 | 183 | 0.05 | 229 | 1.36 |
| O=C1CCc2ccc(OCCCCN3CCN(c4cccc(Cl)c4Cl)CC3)cc2N1 | 0.83 | 75 | – | 98 | 4.9 |
| CCCN[C@H]1CCc2nc(N)sc2C1 | 7.2 | 12.4 | 0.85 | 16.1 | 7 |
| CC[C@@]1(O)C(=O)OCc2c1cc1n(c2=O)Cc2cc3cc(O)ccc3nc2-1 | 2.23 | 1.67 | – | 1.63 | 0.22 |
| CC[C@H]1OC(=O)C[C@@H](O)[C@H](C)[C@@H](O[C@@H]2O[C@H](C)C[C@H](N(C)C)[C@@H]2O)[C@@H](CC=O)CC(C)C(=O)C=C[C@]2(C)O[C@H]2[C@@H]1C (stereo not given in full) | 13.3 | 3.34 | – | 3.54 | 2.83 |
| Cc1c(CN(C)C(=O)C=Cc2cnc3c(c2)CCC(=O)N3)oc2ccccc12 | 0.9 | 6.4 | – | 8.4 | 0.43 |
| COc1ccccc1OCCNCC(O)COc1cccc2[nH]c3ccccc3c12 (stereo not given) | 7.8 | 2.4 | – | 2.8 | 1.3 |
| Cc1ccc(-n2ccnc2)cc1C(O)c1c(C)cc(C(=O)O)cc1C (stereo not given) | 2.91 | 2.37 | – | 2.17 | 0.37 |
| NC(CCC(=O)NC(CS(=O)(=O)CCOP(=O)(N(CCCl)CCCl)N(CCCl)CCCl)C(=O)NC(C(=O)O)c1ccccc1)C(=O)O (stereo not given) | 28.5 | 0.28 | – | 0.27 | 0.46 |
| Oc1cc2cc(CCN3CCN(c4nsc5ccccc45)CC3)c(Cl)cc2[nH]1 | 5.1 | 3.1 | – | 3.3 | 1 |
| Oc1ccc2c(c1)[C@@]13CCCC[C@@]1(O)[C@@H](C2)N(CC1CCC1)CC3 | 41 | 4.8 | 0.17 | 5.3 | 12 |
| O=C1CCC[C@@H]2[C@H]3CCC[N@+]4(O)CCC[C@@H](CN12)[C@@H]34 | 7.66 | 1.69 | – | 1.33 | 0.61 |
| COC(=O)C1(OC(=O)c2cncn2[C@H](C)c2ccccc2)CC1 | 50.1 | 0.24 | – | – | – |

| SMILES | clearance [mL/min/kg] | half-life [h] | fraction unbound | MRT [h] | Vd [L/kg] |
| --- | --- | --- | --- | --- | --- |
| CC(=O)NCCCS(=O)(=O)O | 3.75 | 3.2 | 1 | 1.54 | 0.3 |
| COc1cc(C(=O)C(=O)N2CCCCC2C(=O)OC(CCCc2cccnc2)CCCc2cccnc2)cc(OC)c1OC (stereo not given) | 8.5 | 1.1 | – | 2.62 | 1.34 |
| Cc1ccc(O)c([C@H](CCN(C(C)C)C(C)C)c2ccccc2)c1 | 8.4 | 2.4 | – | 3 | 1.5 |
| COc1cc2c(N)nc(N3CCN(C(=O)OCC(C)(C)O)CC3)nc2c(OC)c1OC | 0.96 | 3.1 | – | 3.1 | 0.18 |
| C[C@@H]1C=C2CC(=O)CCC2[C@H]2CC[C@]3(C)[C@@H](O)CC[C@H]3[C@H]12 (stereo not given in full) | 20 | 0.65 | – | 0.67 | 0.8 |
| CC[C@@]1(O)C(=O)OCc2c1cc1n(c2=O)Cc2c-1nc1ccccc1c2CC[Si](C)(C)C | 4.2 | 13.2 | – | 13.3 | 3.26 |
| NCC1CCC(C(=O)O)CC1 (stereo not given) | 2.4 | 2.3 | – | 2.6 | 0.38 |
| O=C(O)C1C[C@@H](C2CCCCC2)CN1C(=O)CP(=O)(O)CCCCc1ccccc1 (stereo not given in full) | 0.32 | 9.4 | – | 6.8 | 0.13 |
| O=C(O)CCCSCCN1C(=O)CC[C@@H]1/C=C/[C@@H](O)Cc1ccc(F)cc1 | 15.8 | 0.38 | – | 0.51 | 0.48 |
| O=c1[nH]c(=O)n([C@@H]2O[C@H](CO)[C@H](O)[C@H](O)[C@H]2O)cc1F | 1.38 | 4.21 | – | 3.95 | 0.33 |
| CCCc1nc(C(C)(C)O)c(C(=O)O)n1Cc1ccc(-c2ccccc2-c2nnn[nH]2)cc1 | 0.29 | 10.8 | – | – | – |
| CC(=O)O[C@H]1C[C@]2(O)[C@H]3CC[C@H]4C[C@H](O[C@H]5C[C@@H](O)[C@@H](O[C@H]6C[C@@H](O)[C@@H](O[C@H]7C[C@@H](O)[C@@H](O)[C@H](C)O7)[C@H](C)O6)[C@H](C)O5)CC[C@@]4(C)[C@H]3CC[C@]2(C)[C@H]1C1=CC(=O)OC1 | 8.7 | 51.6 | 0.07 | 72.3 | 0.78 |
| CCCC(=O)N1CCCN(c2nc(N)c3cc(OC)c(OC)cc3n2)CC1 | 4.8 | 2 | 0.06 | 2.5 | 0.72 |
| COc1ccc2c(c1)[C@@H]1C[C@]1(C(=O)N1[C@@H]3CC[C@H]1CN(C)C3)Cn1c-2c(C2CCCCC2)c2ccc(C(=O)NS(=O)(=O)N(C)C)cc21 | 1.33 | 5.38 | 0.01 | 6.38 | 0.5 |
| CC(CN1c2ccccc2Sc2ccccc21)N(C)C (stereo not given) | – | – | 0.09 | – | – |
| C=C1CC[C@@]2(O)[C@H]3Cc4ccc(O)c5c4[C@@]2(CCN3CC2CC2)[C@H]1O5 | – | – | 0.65 | – | – |
| CNS(=O)(=O)Cc1ccc2[nH]cc(CCCN3CCN(c4ncncc4OC)CC3)c2c1 | 6.44 | 5.26 | – | 2.25 | 0.87 |
| N[C@@]1(C(=O)O)CS(=O)(=O)[C@H]2C(C(=O)O)[C@H]21 (stereo not given in full) | 2.4 | 1.23 | – | 1.44 | 0.21 |
| CCCCCCCN(CC)CCCC(O)c1ccc(NS(C)(=O)=O)cc1 (stereo not given) | 26 | 7 | – | 7.7 | 12 |
| Cc1cc(O)c2c(=O)c3c(O)cc(O)c4c5c(O)cc(O)c6c(=O)c7c(O)cc(CO)c8c1c2c(c34)c(c65)c78 | 0.62 | 20 | – | 15 | 0.56 |
| CCN(CC)CCOC(=O)C(Cc1cccc2ccccc12)CC1CCCO1 (stereo not given) | 10.8 | 1.35 | 0.2 | 1.5 | 0.98 |
| CCCC(=O)Nc1ccc(OCC(O)CNC(C)C)c(C(C)=O)c1 (stereo not given) | – | 3.5 | – | 2.8 | 1.7 |
| Cc1ccc(-c2ncc(Cl)cc2-c2ccc(S(C)(=O)=O)cc2)cn1 | 0.79 | 26 | 0.081 | 32 | 1.5 |
